Test results taken from patent US7429482B2, “Screening tools for discovery of novel anabolic agents” (United States of America as represented by the Department …, priority 2005, dated 2008).
Entries after “also recorded” stand apart in the source; their conditions may differ.

Columns and labels:
human IGF-1 promoter = experiment: Human IGF-1 promoter luciferase reporter assay in HepG2 cells; format: cell-based
Source text: pREP4.hAR, expressing full length human AR, and pCMV.Sport.β-Gal, expressing β-galactosidase under a CMV promoter, were as described (Zhao et al., Steroids 69: 357-366, 2004). pcDNA5.rGR, expressing rat glucocorticoid receptor, was provided by Dr. Diane Robins (University of Michigan). The rARC562G vector expressing rat AR with a C562G mutation in the DBD, which results in a loss of DNA binding. The IGF-1 reporter genes pOLuc.1630, pOLuc1300, pOLuc926, pOLuc 320 were provided by Dr. Peter Rotwein (Oregon Health & Science University). These reporters expressed firefly luciferase under the control of 320 to 1630 bases upstream of the transcriptional start site of the human IGF-1 promoter as described in (Kim et al., Mol Endocrinol 5: 1964-1972, 1991). pEGX 4T-1 hAR2, expressing GST fused to the N-terminus of AR DNA-binding domain, was provided by Robert J. Matusik, Ph.D. (Vanderbuilt University Medical Center). pRL-CMV expressing Renilla luciferase was from Promega (Madison, Wis.).
HepG2 cells (ATCC, Bethesda, Md.) were maintained in Dulbecco's modified Eagle's medium (DMEM), supplemented with 10% fetal bovine serum (FBS) and antibiotics (penicillin 100 U/ml, streptomycin 100 μg/ml). Cells were seeded at 5×10^4 cells/per well into wells of 24-well plates containing DMEM supplemented with 10% charcoal-dextran stripped FBS (CDS-FBS). The next day, cells were transfected with a total of 300 ng DNA per well using Lipofectamine Plus (Invitrogen) with plasmids as indicated in the figure legends. Three hours after transfection, cells were covered with DMEM supplemented with 10% CDS-FBS and either hormone dissolved in ethanol, or ethanol, as indicated in the figures. […] After overnight incubation, activities of firefly and Renilla luciferase were determined using the Dual Luciferase Assay system (Promega).
Reporter plasmids expressing firefly luciferase under the control of upstream regions of the IGF-1 promoter were constructed by PCR amplification of segments of interest using primers shown in Table 2, using pOLuc-1630 as a template. The location of each amplified fragment is relative to the transcriptional start site. PCR amplification was conduced using a high fidelity Taq polymerase (Pfx, Invitrogen). PCR products were cloned into pCR2.1-TOPO TA (Invitrogen) and the sequences of the inserts were verified. Inserts were excised with Kpn I and Xho I, and were subcloned into pGL3-Promoter (Promega) at these same sites. PGL3-Promoter expresses firefly luciferase under the control of a minimal promoter.

human MAFbx promoter = experiment: Human MAFbx promoter luciferase reporter assay in C2C12 / C2C12.AR cells; format: cell-based
Source text: The reporter genes pMAF3.1, pMAF2.4, pMAF948, pMAF400, and pMAF400-241 express firefly luciferase under the control of promoter regions of the human MAFbx gene and are described in Example 1. The rARC562G vector, encoding rat AR with a C562->G mutation in the first zinc binding module that disrupts binding of AR to DNA was described by Palvimo et al. (Mol Endocrinol 7: 1399-1407, 1993) pAR.4RKM (expressing AR with 4 R/K->M mutations in the nuclear localization sequence that is unable to enter the nucleus) and pAR.ABC (lacking the ligand binding domain) were described by Zhou et al. (J Biol Chem 269: 13115-13123, 1994). The pBabe.puro retroviral backbone described by Morgenstern and Land (Nucleic Acids Res 18: 3587-3596, 1990) was modified by introduction of a Not1 site. The ARE reporter gene expressing firefly luciferase under control of the MMTV hormone response element, and pSP72hAR-1, containing an insert of the full-length cDNA clone of the human AR, were provided by Dr. Diane Robins (University of Michigan). pRL-CMV expressing Renilla luciferase was from Promega (Madison, Wis.).
C2C12 cells (American Type Culture Collection, Manassas, Va.) were maintained in Dulbeco's modified Eagle's Medium (DMEM) containing 10% fetal bovine serum (FBS) and penicillin (100 U/ml)/streptomycin (100 μg/ml) (growth medium). Cells were incubated at 37° C. in humidified air containing 10% CO2. 293T cells (American Type Culture Collection) were maintained in growth medium as above. Transfection was achieved using Lipofectamine-Plus (Invitrogen, Carlsbad, Calif.) using 200 ng total DNA per well.
Cells were seeded into wells of 24-well plates (5×10^5 cells/well) then maintained overnight in DMEM with 10% CDS-FBS. Cells were co-transfected with the various reporter genes and pRL-CMV. Cells were incubated in the transfection mixture overnight, then covered with DMEM supplemented with 10% charcoal-dextran-stripped FBS (CDS-FBS) and either ethanol (EtOH) or hormones dissolved in EtOH. Cells were maintained for an additional 24 hours, at which time both firefly and renilla luciferase activity were determined using the Dual Luciferase Assay (Promega, Madison, Wis.) and a Berthold 96-well plate luminometer. Firefly luciferase activities were normalized relative to renilla luciferase. Ethanol concentrations were less than 0.1%.

MAFbx mRNA = MAFbx mRNA levels in AR6 / C2C12.AR cells (qPCR); format: cell-based, mouse; details: dexamethasone overnight
Procedure: (A) Rats were administered test agents as indicated in the figure for 7-days, at which time animals were sacrificed and MAFbx expression was determined in gastrocnemius muscles by qPCR. Data are mean values±SEM for at least 8 animals. * p<0.05 vs vehicle, t-test. (B) AR6 cells were seeded into 6-well plates and incubated overnight in growth medium. Medium was replaced with DMEM containing 2% horse serum followed by incubation for an additional 48 hours. Hormones or vehicle (EtOH) were added to the medium and cells were incubated overnight, at which time MAFbx mRNA levels were determined by qPCR and expressed as fold-induction versus levels in cells incubated with EtOH. Data are mean values±SEM for three determinations each performed in triplicate. * p<0.05 vs. EtOH (ANOVA). (C) Effect of testosterone on MAFbx mRNA half-life. C2C12.AR cells were incubated overnight in growth medium supplemented with testosterone or vehicle (EtOH). […] Levels of MAFbx mRNA are expressed as a percentage of those at time zero. […]
RNA was quantified by absorbance at 260 nm. […] Relative changes in expression were determined using the 2^−ΔΔCt method. Taqman Assay on Demand probes (Applied Biosystems) were used for all assays except rat 18S RNA, which was quantified using the following Assay on Demand Probes: Forward: […] […]

MAFbx = MAFbx expression in gastrocnemius of rats infused with dexamethasone with or without testosterone (qPCR); format: in vivo; details: rat, dexamethasone 0.7 mg/kg/day infusion, 7 days
Procedure: Muscle was flash frozen on dry ice after excision. Total RNA was isolated by phenol:chloroform extraction (Chomczynski and Sacchi, Anal Biochem 162: 156-159, 1987) and further enriched using RNAeasy minicolumns (Qiagen) with digestion on the column with RNAse-free DNAse (Qiagen).
RNA was quantified by absorbance at 260 nm. One microgram of total RNA was used to prepare cDNA libraries using the High Capacity cDNA Archive Kit (Applied Biosystems, Foster City, Calif.). Libraries were diluted 25-fold with water. Real time PCR was performed using Taqman 2×PCR buffer (Applied Biosystems) and an Applied Biosystems 7500 thermocycler. Data were normalized relative to that for 18S RNA. Relative changes in expression were determined using the 2^−ΔΔCt method. Taqman Assay on Demand probes (Applied Biosystems) were used for all assays except rat 18S RNA, which was quantified using the following […]: Forward: […] (SEQ ID NO:15); Reverse: […] (SEQ ID NO:16); Probe: FAM-[…] (SEQ ID NO:17; Labeled with FAM and non-fluoresent quencher, NFQ, at 5′ and 3′ ends, repsectively).
Male Wistar rats weighing 250 gm were anesthetized with ketamine/xylazine followed by implantation Alzet miniosmotic pumps administering vehicle (propylene glycocol), dexamethasone (0.7 mg/kg/day), or dexamethasone plus testosterone (28 mg/kg/day). […]

SMILES | activation of the upstream promoter of the human IGF-1 gene (human IGF-1 promoter; Hep G2 cells, FIG. 18) | suppression of reporter under control of 3.1 of the MAFbx upstream promoter (human MAFbx promoter; C2C12 muscle cells, 5 μM) [%] | expression of MAFbx reporter (general statement) (human MAFbx promoter; cells transduced with the MAFbx reporter construct) | increase in MAFbx mRNA expression (MAFbx mRNA) | activation of reporters incorporating ARE2 or both AREs (p3-13a and p3-32) (human IGF-1 promoter; HepG2 + GR, dexamethasone) [fold] | induction of luciferase expression, reporters incorporating ARE1 (p3-230 and p3-22) (human IGF-1 promoter; HepG2 + GR, dexamethasone) | increase in luciferase expression of pMAF3.1 reporter (human MAFbx promoter; C2C12.AR cells, dexamethasone) | increase in expression of MAFbx in gastrocnemius muscle (MAFbx) [fold]
C[C@]12COC(=O)C[C@@H]1CC[C@@H]1[C@@H]2CC[C@@]2(C)[C@H]1CC[C@]2(C)O [oxandrolone] | does not induce and not | 15 | does not decrease; also recorded: less effective | – | – | – | – | –
C[C@@H]1C[C@H]2[C@@H]3CCC4=CC(=O)C=C[C@]4(C)[C@@]3(F)[C@@H](O)C[C@]2(C)[C@@]1(O)C(=O)CO [dexamethasone] | – | – | – | approximately 3 fold | 5 | less than 2 fold | more than 1.5 fold | ~4
